The record followed here is patent US20040110846A1, “Perylenequinones for use with immunotherapy agents” (priority 2004, published 2004).

The test system of one data set is EMT6 murine mastocytoma. In words: Sonosensitizing potential: LD50 in EMT6 cells in vitro for a fixed dose of ultrasound. The class given is cell-based. From the text:
(§1) As used herein, “photopotentiation factor” refers to the property of the compound(s) to exert light- or sound-mediated toxicity in excess of its (their) inherent unactivated toxicity. In a preferred embodiment of the invention, the activation factor may be calculated as the ratio of the LD50 of cells treated without activation to the LD50 of the cells treated with an activated compound (drug LD50 divided by activated drug LD50). Where the term “LD50” has been used above, the term “IC50” may be substituted, to address the bioassays that concern metabolic activity rather than the endpoint of lethality, loss of reproductive capability, or clonogenic death. The relative photoactivation efficiency of a compound may also be determined using a clonogenic assay, an assay that is well known to those skilled in the art.
(§2) for a fixed dose of light or ultrasound

The next data set relates to EMT6 murine. In words: Photosensitizing potential: LD50 in EMT6 cells in vitro for a fixed dose of light. The data set is classed as cell-based.
Text: as §1, §2

Data set [1] is described as follows: Absorption (extinction coefficient) in the red spectral region compared with HB. The class given is physicochemical. From the text:
A hypocrellin derivative of the present invention also includes 2-butylamino-2-demethoxy-hypocrellin B (2-BA-2-DMHB). […] Compared with its parent compound HB, its absorption bands extend toward longer wavelengths. The extinction coefficient at 583 nm was 2.5-fold as much as HB at 548 nm, and at 621 nm was over 3.8-fold as much as HB at 580 nm.

“2-(N,N-dimethyl-amino) propylamine-Hypocrellin B [HBDD-R1]”: in the data set with EMT6 murine mastocytoma, the “Sonosensitizing Potential (Molar Concentration which exerts LD50)” value (shortened to “Sonosensitizing Potential”) came to 1.0 mM.
As for “2-butylamino-2-demethoxy-Hypocrellin B [DMHBb]”, the “Photosensitizing Potential (Molar Concentration which exerts LD50)” value (shortened to “Photosensitizing Potential”) in the data set with EMT6 murine was 0.1 µM. The “Sonosensitizing Potential” value in the data set on EMT6 murine mastocytoma is reported as 0.1 mM. Moreover, in data set [1] (583 nm vs HB at 548 nm), the “extinction coefficient at 583 nm relative to HB at 548 nm” value is given as 2.5 fold. In addition, the “extinction coefficient at 621 nm relative to HB at 580 nm” value in data set [1] (621 nm vs HB at 580 nm) was “over 3.8 fold”.
As to 2-morpholino-ethylaminated HB [HBAM-R1], in the data set with EMT6 murine, the “Photosensitizing Potential” value is 4.0 µM. Besides, in the data set on EMT6 murine mastocytoma, the “Sonosensitizing Potential” value is “None”.
Take Demethylated-HB [DMHBa]: in the data set with EMT6 murine, the “Photosensitizing Potential” value was 3.0 µM. In the data set with EMT6 murine mastocytoma, the “Sonosensitizing Potential” value is reported as 1.0 mM.
With Ethylenediamne-Hypocrellin B [HBED-R2], in the data set on EMT6 murine, the “Photosensitizing Potential” value came to 4.0 µM. In addition, the “Sonosensitizing Potential” value in the data set on EMT6 murine mastocytoma is “None”.
Turning to Hypocrellin A [HA, reference compound], the “Photosensitizing Potential” value in the data set on EMT6 murine amounted to 4.0 µM. Further, the “Sonosensitizing Potential” value in the data set with EMT6 murine mastocytoma is “None”.
Regarding Methylamine-Hypocrellin B [HBMA-IV], the “Photosensitizing Potential” value with EMT6 murine amounted to 1.0 µM. Moreover, the “Sonosensitizing Potential” value with EMT6 murine mastocytoma is recorded as “None”.
